Like-named read-outs stand apart in the source and are kept apart here.
Key:
[1] = Exposure–response analysis (logistic regression) of safety endpoints; assay type: in vivo, human
Procedure: The exposure–response analyses were conducted using a subset of patients from the PopPK analysis where capivasertib was used as monotherapy. […] As different schedules were assessed between and within studies, the exposure metrics were derived for the last dose of the last dosing day in the second week of treatment (i.e. on days 14, 11, and 9 for the continuous, [4/3] and [2/5] schedules, respectively), to ensure SS conditions, using the planned dose. […] The relative dose intensity (RDI) was calculated as the percentage of the average weekly dose relative to the PWD to examine the tolerability of capivasertib monotherapy at the given dosing schedules.
Logistic regression models were used to establish associations between the probability of the safety endpoints with the exposure metrics at a statistically significant level of 0.005.

[2] = parameters: method as in PMID 29066505, PMID 26931343; details: monotherapy, cited from earlier work; for recommended phase 2 dose: based on DLTs
AKT = system: AKT; parameters: method as in PMID 29066505; details: 480 mg BID [4/3] versus 320 mg continuous dosing; cited from earlier work
[3] = univariate logistic regression, significance level 0.005

## NC1(C(=O)N[C@@H](CCO)c2ccc(Cl)cc2)CCN(c2ncnc3[nH]ccc23)CC1 [capivasertib, 4-amino-N-[(1S)-1-(4-chlorophenyl)-3-hydroxypropyl]-1-(7H-pyrrolo[2,3-d]pyrimidin– 4-yl)piperidine-4-carboxamide]
[1]; [2/5] 640 mg compared with [4/3] 480 mg
  probability of hyperglycemia AE grade ≥ 3 and increased blood glucose > 13.9 mmol/L: higher probability
[1]; at a given dose
  probabilities of hyperglycemia AE grade ≥ 3 and increased blood glucose > 13.9 mmol/L: effect of schedule: did not depend on the schedule
[1]; at a given dose, intermittent schedules compared with continuous, statistically significant
  probability of AEDD, AEDM and diarrhea AE grade ≥ 2: effect of schedule: lower probability of events
[1]; at a given weekly dose, intermittent schedules compared with continuous, statistically significant
  probability of hyperglycemia AE grade ≥ 3 and increased blood glucose > 13.9 mmol/L: effect of schedule: higher probability of events
[1]; continuous 320 mg (4480 mg weekly) compared with [4/3] 480 mg (3840 mg weekly)
  probability of rash AE grade ≥ 2, AEDD, AEDM, AE grade ≥ 3, SAE and diarrhea AE grade ≥ 2: higher
[1]; logistic regression, significance level 0.005
  relationships between exposure metrics and AE grade ≥ 1: No significant relationships
[1]; [3]
  exposure metrics with significant relationship to AE grade ≥ 3: dose, PWD, AUC, AUCPWD, Cmax, and Cmin
  exposure metrics with significant relationship to AE leading to dose discontinuation: PWD
  exposure metrics with significant relationship to AE leading to dose modification: PWD, AUC, AUCPWD, Cmax, and Cmin
  exposure metrics with significant relationship to SAE: dose, PWD, AUC, AUCPWD, Cmax, and Cmin
  exposure metrics with significant relationship to diarrhea AE grade ≥ 2: PWD, AUCPWD
  exposure metrics with significant relationship to hyperglycemia AE grade ≥ 3: dose, AUC, AUCPWD, Cmax, and Cmin
  exposure metrics with significant relationship to increased blood glucose > 13.9 mmol/L: dose, AUC, AUCPWD, Cmax, and Cmin
  exposure metrics with significant relationship to rash AE grade ≥ 2: PWD
[2]; [2/5] schedule
  recommended phase 2 dose: 640 mg BID
[2]; [4/3] schedule
  recommended phase 2 dose: 480 mg BID
[2]; continuous schedule
  recommended phase 2 dose: 320 mg BID
[2]; first-in-human study
  dose-limiting toxicities (DLTs): diarrhea, rash, and hyperglycemia
AKT
  target engagement in tumor tissue: greater target engagement

— paper PMC11953117 (Cancer Chemotherapy and Pharmacology, 2025)
